Measurements as given in patent US12371454B2, “Cyclic peptide compound having Kras inhibitory action” (priority 2019, dated 2025).
Starred links: 1 amine or outer side, 2 acyl side, 3 side chain; linkers in the order of their positions; H or OH if unused. Positions of bridges follow the written chain, without caps; N, C: chain ends. Non-standard residues stand in square brackets, D forms with d. Residues, ends and D or L forms follow the SMILES beside them. *: point of attachment. hPhe(3-Cl-4-CF3) = N[C@@H](CCc1ccc(C(F)(F)F)c(Cl)c1)C(=O)O; NMePhe(4-CF3) = CN[C@@H](Cc1ccc(C(F)(F)F)cc1)C(=O)O; X39 = COc1ccc(C[C@@H](C(=O)[*:2])N(C)[*:1])cn1; NMePhe(4-Cl) = CN[C@@H](Cc1ccc(Cl)cc1)C(=O)O; NMePhe(4-Me) = CN[C@@H](Cc1ccc(C)cc1)C(=O)O; NMePhe(2-Cl) = CN[C@@H](Cc1ccccc1Cl)C(=O)O; NMedβ3hAla = C[C@H](CC(=O)[*:2])N(C)[*:1]; Phe(3-Cl) = N[C@@H](Cc1cccc(Cl)c1)C(=O)O; NMeGly(cPent) = CN[C@H](C(=O)O)C1CCCC1; Phe(3-I) = N[C@@H](Cc1cccc(I)c1)C(=O)O; Pro(4,4-F2) = O=C(O)[C@@H]1CC(F)(F)CN1; NMeCha = CN[C@@H](CC1CCCCC1)C(=O)O; NMeChg = CN[C@H](C(=O)O)C1CCCCC1; NMeF = CN[C@@H](Cc1ccccc1)C(=O)O; hPhe = N[C@@H](CCc1ccccc1)C(=O)O; NMeD = CN[C@@H](CC(=O)O)C(=O)O; NMeL = CN[C@@H](CC(C)C)C(=O)O; NMeV = CN[C@H](C(=O)O)C(C)C; d(β3hA) = C[C@@H](N)CC(=O)O; NMeS = CN[C@@H](CO)C(=O)O; NMeA = CN[C@@H](C)C(=O)O; NMeAib = CNC(C)(C)C(=O)O; Piperidide = C1CCN(*)CC1; Pyrrolidide = C1CCN(*)C1; dNMeA = CN[C@H](C)C(=O)O; Ac5c = NC1(C(=O)O)CCCC1; Aze = O=C(O)[C@@H]1CCN1; Sar = CNCC(=O)O

Biological target: T1, Kras and SOS1 (biotin-tagged human Kras loaded with GDP, His-tagged human SOS1) (Homo sapiens, UniProt P01116, G12D)
T1 construct: made in house; host or cells: E. coli (stated for Kras only)
T1 sequence (P01116 1-188 isoform P01116-2 G12D): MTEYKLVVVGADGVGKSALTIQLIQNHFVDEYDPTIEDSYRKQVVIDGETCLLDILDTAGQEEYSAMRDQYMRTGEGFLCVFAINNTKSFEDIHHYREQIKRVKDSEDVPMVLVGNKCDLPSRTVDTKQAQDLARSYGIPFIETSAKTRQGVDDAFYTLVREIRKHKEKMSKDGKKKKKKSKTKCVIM
Assay: Protein-protein interaction inhibition between Kras and SOS1 (KrasGl2D-SOS PPI) using AlphaScreen
Type: binding
Details: AlphaScreen; biotin-tagged human Kras loaded with GDP, His-tagged human SOS1; read-out: KRAS G12D-SOS PPI IC50
Procedure, shortened: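 Donor beads (nickel) hold His-SOS1; acceptor beads (streptavidin) hold biotin-Kras bound to GDP. Signal measured at 520-620 nm following 680 nm excitation.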

CC[C@H](C)[C@@H]1NC(=O)[C@H](CC(C)C)N(C)C(=O)C[C@@H](C)N(C)C(=O)[C@H](C2CCCC2)N(C)C(=O)C2(CCCC2)NC(=O)[C@@H]2CC(F)(F)CN2C(=O)[C@H](CCc2ccc(C(F)(F)F)c(Cl)c2)NC(=O)CN(C)C(=O)[C@H](Cc2ccc(C(F)(F)F)cc2)N(C)C(=O)CN(C)C(=O)CN(C)C1=O [Compound 611] (cyclo([Ac5c][NMeGly(cPent)][NMedβ3hAla][NMeL]I[Sar][Sar][NMePhe(4-CF3)][Sar][hPhe(3-Cl-4-CF3)][Pro(4,4-F2)]))
IC50: 3.3 nM

CC[C@H](C)[C@@H]1NC(=O)[C@H](C)N(C)C(=O)C[C@@H](C(=O)N2CCCC2)NC(=O)[C@H](C(C)C)N(C)C(=O)[C@H](Cc2ccccc2)N(C)C(=O)[C@H](C)NC(=O)[C@H](Cc2cccc(Cl)c2)NC(=O)CN(C)C(=O)[C@H](Cc2ccc(Cl)cc2)N(C)C(=O)CN(C)C(=O)CN(C)C1=O [Compound 612] ([NMeA]I[Sar][Sar][NMePhe(4-Cl)][Sar][Phe(3-Cl)]A[NMeF][NMeV]D-Pyrrolidide; lactam N-11)
IC50: 120 nM

CC[C@H](C)[C@@H]1NC(=O)[C@H](C)N(C)C(=O)C[C@@H](C(=O)N2CCCC2)NC(=O)[C@H](CC(C)C)N(C)C(=O)[C@H](Cc2ccccc2)N(C)C(=O)[C@H](CC(C)C)NC(=O)[C@H](Cc2ccccc2)NC(=O)CN(C)C(=O)[C@H](Cc2ccc(Cl)cc2)N(C)C(=O)CN(C)C(=O)CN(C)C1=O [Compound 613] ([NMeA]I[Sar][Sar][NMePhe(4-Cl)][Sar]FL[NMeF][NMeL]D-Pyrrolidide; lactam N-11)
IC50: 500 nM

CC[C@H](C)[C@@H]1NC(=O)[C@H](CC(C)C)N(C)C(=O)C[C@@H](C(=O)N2CCCCC2)N(C)C(=O)[C@H](C2CCCCC2)N(C)C(=O)C2(CCCC2)NC(=O)[C@H](Cc2ccc(OC)nc2)N(C)C(=O)[C@H](CCc2ccc(C(F)(F)F)c(Cl)c2)NC(=O)CN(C)C(=O)[C@H](CC2CCCCC2)N(C)C(=O)[C@@H]2CCN2C(=O)CN(C)C1=O [Compound 614] ([NMeL]I[Sar][Aze][NMeCha][Sar][hPhe(3-Cl-4-CF3)][X39][Ac5c][NMeChg][NMeD]-Piperidide; lactam N-11)
IC50: 24 nM

CC[C@H](C)[C@@H]1NC(=O)[C@H](CC(C)C)N(C)C(=O)C[C@@H](C(=O)N2CCCCC2)N(C)C(=O)[C@H](CC(C)C)NC(=O)C(C)(C)N(C)C(=O)[C@H](CCc2ccccc2)NC(=O)[C@H](Cc2cccc(I)c2)NC(=O)CN(C)C(=O)[C@H](Cc2ccc(C)cc2)N(C)C(=O)[C@@H]2CCN2C(=O)[C@H](C)N(C)C1=O [Compound 617] ([NMeL]I[NMeA][Aze][NMePhe(4-Me)][Sar][Phe(3-I)][hPhe][NMeAib]L[NMeD]-Piperidide; lactam N-11)
IC50: 110 nM

CC[C@H](C)[C@@H]1NC(=O)[C@H](CC(C)C)N(C)C(=O)C[C@@H](C(=O)N2CCCCC2)N(C)C(=O)[C@H](CC(C)C)NC(=O)[C@H](Cc2ccccc2)N(C)C(=O)[C@H](C)NC(=O)[C@H](Cc2cccc(I)c2)NC(=O)CN(C)C(=O)[C@H](Cc2ccc(C)cc2)N(C)C(=O)CN(C)C(=O)CN(C)C1=O [Compound 619] ([NMeL]I[Sar][Sar][NMePhe(4-Me)][Sar][Phe(3-I)]A[NMeF]L[NMeD]-Piperidide; lactam N-11)
IC50: 19 nM

CC[C@H](C)[C@@H]1NC(=O)[C@H](C)N(C)C(=O)C[C@@H](C)NC(=O)[C@H](C2CCCC2)N(C)C(=O)C2(CCCC2)NC(=O)[C@@H]2CCCN2C(=O)[C@H](CCc2ccc(C(F)(F)F)c(Cl)c2)NC(=O)[C@@H](C)N(C)C(=O)[C@H](CC(C)C)N(C)C(=O)CN(C)C(=O)CN(C)C1=O [Compound 621] (cyclo([Ac5c][NMeGly(cPent)][d(β3hA)][NMeA]I[Sar][Sar][NMeL][dNMeA][hPhe(3-Cl-4-CF3)]P))
IC50: 59 nM

CC[C@H](C)[C@@H]1NC(=O)[C@H](CC(C)C)N(C)C(=O)C[C@@H](C(=O)N2CCCCC2)N(C)C(=O)[C@H](C2CCCCC2)N(C)C(=O)C2(CCCC2)NC(=O)[C@@H]2CCCN2C(=O)[C@H](CCc2ccc(C(F)(F)F)c(Cl)c2)NC(=O)CN(C)C(=O)[C@H](COC)N(C)C(=O)CN(C)C(=O)CN(C)C1=O [Compound 623] ([NMeL]I[Sar][Sar][NMeS](Me)[Sar][hPhe(3-Cl-4-CF3)]P[Ac5c][NMeChg][NMeD]-Piperidide; lactam N-11)
IC50: 1.8 nM

CC[C@H](C)[C@@H]1NC(=O)[C@H](C)N(C)C(=O)C[C@@H](C(=O)N2CCCC2)N(C)C(=O)[C@H](C(C)C)N(C)C(=O)[C@H](C)NC(=O)[C@H](Cc2ccccc2Cl)N(C)C(=O)[C@H](CCc2ccc(C(F)(F)F)c(Cl)c2)NC(=O)CN(C)C(=O)[C@H](CC2CCCCC2)N(C)C(=O)CN(C)C(=O)CN(C)C1=O [Compound 624] ([NMeA]I[Sar][Sar][NMeCha][Sar][hPhe(3-Cl-4-CF3)][NMePhe(2-Cl)]A[NMeV][NMeD]-Pyrrolidide; lactam N-11)
IC50: 160 nM
